biological target: Histamine H3 receptor (Rattus norvegicus, UniProt Q9QYN8); test: Binding affinity to histamine H3 receptor in rat cerebral cortex; assay type: tissue-based
Sequence (Q9QYN8 whole entry): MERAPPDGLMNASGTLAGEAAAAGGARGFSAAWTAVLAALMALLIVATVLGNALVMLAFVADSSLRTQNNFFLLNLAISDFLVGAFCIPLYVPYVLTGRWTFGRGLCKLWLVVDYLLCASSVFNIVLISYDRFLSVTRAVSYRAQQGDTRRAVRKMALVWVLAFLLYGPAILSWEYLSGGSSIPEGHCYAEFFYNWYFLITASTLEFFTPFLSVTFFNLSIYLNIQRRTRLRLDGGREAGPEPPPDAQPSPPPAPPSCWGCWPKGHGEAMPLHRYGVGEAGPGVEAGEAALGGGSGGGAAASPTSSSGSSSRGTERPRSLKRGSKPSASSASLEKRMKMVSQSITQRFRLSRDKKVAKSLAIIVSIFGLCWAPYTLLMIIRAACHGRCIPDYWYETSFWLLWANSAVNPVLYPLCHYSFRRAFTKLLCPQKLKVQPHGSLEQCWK

Structure (SMILES)	Ki [nM]
Clc1ccc(CCCOCCCN2CCCCC2)cc1 [PITOLISANT]	17

biological target: Histamine H3 receptor (Homo sapiens, UniProt Q9Y5N1); test: Displacement of [125I]Iodoproxyfran from human histamine H3 receptor expressed in HEK293 cells; assay type: cell-based
Sequence (Q9Y5N1 whole entry): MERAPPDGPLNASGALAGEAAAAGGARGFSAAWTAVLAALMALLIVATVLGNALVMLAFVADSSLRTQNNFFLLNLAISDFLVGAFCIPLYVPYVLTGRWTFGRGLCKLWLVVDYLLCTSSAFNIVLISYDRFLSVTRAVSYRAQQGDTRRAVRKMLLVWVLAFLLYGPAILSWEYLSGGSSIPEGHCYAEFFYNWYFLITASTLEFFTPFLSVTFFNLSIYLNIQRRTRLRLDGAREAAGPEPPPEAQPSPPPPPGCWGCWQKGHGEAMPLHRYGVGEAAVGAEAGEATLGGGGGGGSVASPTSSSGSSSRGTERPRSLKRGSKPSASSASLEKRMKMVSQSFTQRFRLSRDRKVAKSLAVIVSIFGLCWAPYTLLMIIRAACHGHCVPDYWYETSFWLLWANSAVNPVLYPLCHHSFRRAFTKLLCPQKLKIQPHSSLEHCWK

Structure (SMILES)	Ki [nM]
COc1cccc(OCCOCCCN2CCCC(C)C2)c1 (stereo not drawn)	14.8
COc1cccc(OCCOCCCN2CCC(C)CC2)c1	12.5
CC1CCCN(CCCOCCOc2ccc(C(C)(C)C)cc2)C1 (stereo not drawn)	62
COc1cccc(OCCCOCCCN2CCCC(C)C2)c1 (stereo not drawn)	27.3
COc1cccc(OCCCOCCCN2CCC(C)CC2)c1	49
COc1cccc(OCCCOCCCN2CCCCCC2)c1	18.6
CC1CCCN(CCCOCCCOc2ccc(Cl)cc2)C1 (stereo not drawn)	3.2
CC1CCN(CCCOCCCOc2ccc(Cl)cc2)CC1	27.9
CC1CCCN(CCCOCCCOc2ccc(C(C)(C)C)cc2)C1 (stereo not drawn)	12.8
CC1CCN(CCCOCCCOc2ccc(C(C)(C)C)cc2)CC1	51
CC(C)(C)c1ccc(OCCCOCCCN2CCCCCC2)cc1	7.7
COc1cccc(OCCOCCCN2CCCCCC2)c1	7.2
